According to patent US20240360148A1 (SUVALENT THERAPEUTICS, INC., priority 2021, published 2024):

molecular target: SAE1 (Homo sapiens (Human), UniProt Q9UBE0+Q9UBT2); assay: SAE High Throughput Biochemical Assay (HTRF), 15 min preincubation; settings: read-out: 15 min preincubation HTRF IC50 (μM) Ave, SAE1 12.5 nM, ATP 100 μM
Experimental: Assay buffer was prepared [50 mM HEPES, pH 7.5, 0.1% BSA and 10 mM MgCl2] as was the Stop Buffer [100 mM HEPES, pH 7.5, 0.05% Tween20, and 410 mM KF]. The 2×Reaction Buffer [80 nM SUMO-GST, 80 nM UBC9-His, 200 μM ATP and diluted in Assay Buffer] and Antibody Reaction Mix [13.34 nM anti-GSTXL665, 1.66 nM anti-His EuK and Diluted in Stop Buffer] were also prepared. Compounds were dissolved at 200×in DMSO in a 384-well plate. Serial dilutions were performed in DMSO for each compound, and then each concentration was diluted another 50-fold in Assay Buffer, to 4× the final concentration. 2.5 μL of each concentration was transferred into its own well in a 384-well plate. SAE1 was then diluted to 4× in Assay Buffer, and 2.5 μL of 4×SAE1 was mixed into each compound-containing well. After incubating for 15 minutes at RT, 5 μL of 2×Reaction Buffer was mixed into every well. Then after another 45 minutes at RT, 10 μL of Antibody Reaction Mix was added and mixed into every well. This plate was then read on an HTRF-compatible plate reader after 2 hours at RT, and again after sitting at RT overnight. [Final Component Concentrations: SAE1: 12.5 nM; SUMO-GST: 40 nM; UBC9-His: 40 nM; Anti-GST-XL665: 6.67 nM; Anti-His-EuK: 0.83 nM; and ATP: 100 μM] Alternatively, the compounds are tested at a single concentration of 25 micromolar and the percent of control is measured.

Chain of SAE1 (Q9UBE0 whole entry): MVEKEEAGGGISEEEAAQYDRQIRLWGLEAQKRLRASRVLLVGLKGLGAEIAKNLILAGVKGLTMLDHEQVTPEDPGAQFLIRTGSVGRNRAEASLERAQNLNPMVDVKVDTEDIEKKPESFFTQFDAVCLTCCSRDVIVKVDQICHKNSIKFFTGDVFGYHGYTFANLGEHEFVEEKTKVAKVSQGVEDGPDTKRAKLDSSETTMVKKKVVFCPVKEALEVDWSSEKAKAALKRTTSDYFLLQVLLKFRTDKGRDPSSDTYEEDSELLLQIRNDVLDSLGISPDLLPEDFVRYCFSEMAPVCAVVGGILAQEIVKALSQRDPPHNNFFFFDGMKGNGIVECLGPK
Chain of SAE1 (Q9UBT2 whole entry): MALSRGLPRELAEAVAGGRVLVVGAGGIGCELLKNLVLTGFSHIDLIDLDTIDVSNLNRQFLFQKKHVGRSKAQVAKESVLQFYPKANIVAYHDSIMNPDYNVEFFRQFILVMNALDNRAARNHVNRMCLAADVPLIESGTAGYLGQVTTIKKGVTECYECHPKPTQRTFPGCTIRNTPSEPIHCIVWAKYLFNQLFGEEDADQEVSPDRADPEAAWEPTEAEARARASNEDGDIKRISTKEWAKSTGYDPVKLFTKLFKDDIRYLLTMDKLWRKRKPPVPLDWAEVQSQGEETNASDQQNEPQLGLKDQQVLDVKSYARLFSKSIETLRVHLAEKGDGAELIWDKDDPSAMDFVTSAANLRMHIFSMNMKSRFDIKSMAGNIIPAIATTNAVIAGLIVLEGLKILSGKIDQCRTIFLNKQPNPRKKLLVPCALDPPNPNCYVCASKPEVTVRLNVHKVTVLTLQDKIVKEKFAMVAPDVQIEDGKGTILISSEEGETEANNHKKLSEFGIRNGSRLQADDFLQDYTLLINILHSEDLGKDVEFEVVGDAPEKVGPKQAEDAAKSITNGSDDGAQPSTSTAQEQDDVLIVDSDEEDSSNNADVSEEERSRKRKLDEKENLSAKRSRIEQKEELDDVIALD

**Q.** How did the IC50 turn out when `CCOC(=O)CCn1cc(-c2ccccc2[C@@H]2CN(C(=O)/C=C/CN(C)C)Cc3sc(C#N)cc32)c(C(F)(F)F)n1` [Example 170, Ethyl (S,E)-3-(4-(2-(2-cyano-6-(4-(dimethylamino)but-2-enoyl)-4,5,6,7-tetrahydrothieno[2,3-c]pyridin-4-yl)phenyl)-3-(trifluoromethyl)-1H pyrazol-1-yl)propanoate] was run?
**A.** The IC50 was 10.2 µM.

**Q.** Which IC50 does the source give for `CCOC(=O)CCCn1cc(-c2ccccc2[C@@H]2CN(C(=O)/C=C/CN(C)C)Cc3sc(C#N)cc32)c(C(F)(F)F)n1` [Example 171] here?
**A.** The IC50 was 12 µM.

**Q.** How did the IC50 turn out when `CN(C)C/C=C/C(=O)N1Cc2sc(C#N)cc2[C@H](c2ccccc2-c2cn(CC(=O)O)nc2C(F)(F)F)C1` [Example 172, (S, E)-2-(4-(2-(2-Cyano-6-(4-(dimethylamino)but-2-enoyl)-4,5,6,7-tetrahydrothieno[2,3-c]pyridin-4-yl)phenyl)-3-(trifluoromethyl)-1H pyrazol-1-yl)acetic acid] was run?
**A.** The IC50 was 21.1 µM.

**Q.** `CN(C)C/C=C/C(=O)N1Cc2sc(C#N)cc2[C@H](c2ccccc2-c2cn(CCC(=O)O)nc2C(F)(F)F)C1` [Example 173, (S, E)-3-(4-(2-(2-Cyano-6-(4-(dimethylamino)but-2-enoyl)-4,5,6,7-tetrahydrothieno[2,3-c]pyridin-4-yl)phenyl)-3-(trifluoromethyl)-1H-pyrazol-1-yl)propanoic acid] was tested. Which IC50 did it give?
**A.** Its IC50 is 17.3 µM.

**Q.** Which IC50 does the source give for `CN(C)C/C=C/C(=O)N1Cc2sc(C#N)cc2[C@H](c2ccccc2-c2cn(CCCC(=O)O)nc2C(F)(F)F)C1` [Example 174, (S, E)-4-(4-(2-(2-Cyano-6-(4-(dimethylamino)but-2-enoyl)-4,5,6,7-tetrahydrothieno[2,3-c]pyridin-4-yl)phenyl)-3-(trifluoromethyl)-1H pyrazol-1-yl)butanoic acid] here?
**A.** The IC50 was 12.5 µM.

**Q.** `CN(C)C/C=C/C(=O)N1Cc2sc(C#N)cc2[C@H](c2ccccc2-c2cn(CCc3ccccn3)nc2C(F)(F)F)C1` [Example 176, (S, E)-6-(4-(Dimethylamino)but-2-enoyl)-4-(2-(1-(2-(pyridin-2-yl)ethyl)-3-(trifluoromethyl)-1H-pyrazol-4-yl)phenyl)-4,5,6,7-tetrahydrothieno[2,3-c]pyridine-2-carbonitrile] was tested. Which IC50 did it give?
**A.** The IC50 was 19.9 µM.

**Q.** `CN(C)C/C=C/C(=O)N1Cc2sc(C#N)cc2[C@H](c2ccccc2-c2cn(CCc3ccncc3)nc2C(F)(F)F)C1` [Example 177, (S,E)-6-(4-(Dimethylamino)but-2-enoyl)-4-(2-(1-(2-(pyridin-4-yl)ethyl)-3-(trifluoromethyl)-1H pyrazol-4-yl)phenyl)-4,5,6,7-tetrahydrothieno[2,3-c]pyridine-2-carbonitrile] was tested. Which IC50 did it give?
**A.** Its IC50 is 6.3 µM.

**Q.** With `CCn1cc(-c2c(C3CN(C(=O)/C=C/CN(C)C)Cc4sc(C#N)cc43)ccc(F)c2F)c(C(F)(F)F)n1` (centres unmarked) [Example 184, (E)-6-(4-(Dimethylamino)but-2-enoyl)-4-(2-(1-ethyl-3-(trifluoromethyl)-1 H-pyrazol-4-yl)-3,4-difluorophenyl)-4,5,6,7-tetrahydrothieno[2,3-c]pyridine-2-carbonitrile] as the compound, how does the IC50 read?
**A.** Its IC50 is 8.37 µM.

**Q.** How did the IC50 turn out when `CCn1cc(-c2c(C3CN(C(=O)/C=C/CN(C)C)Cc4sc(C#N)cc43)ccc(F)c2Cl)c(C(F)(F)F)n1` (centres unmarked) [Example 187, (E)-4-(3-Chloro-2-(1-ethyl-3-(trifluoromethyl)-1 H-pyrazol-4-yl)-4-fluorophenyl)-6-(4-(dimethylamino)but-2-enoyl)-4,5,6,7-tetrahydrothieno[2,3-c]pyridine-2-carbonitrile] was run?
**A.** Its IC50 is 8.1 µM.

**Q.** Which IC50 does the source give for `CCn1cc(-c2cc(C(F)F)ccc2C2CN(C(=O)/C=C/CN(C)C)Cc3sc(C#N)cc32)c(C(F)(F)F)n1` (centres unmarked) [Example 188, (E)-4-(4-(Difluoromethyl)-2-(1-ethyl-3-(trifluoromethyl)-1 H-pyrazol-4-yl)phenyl)-6-(4-(dimethylamino)but-2-enoyl)-4,5,6,7-tetrahydrothieno[2,3-c]pyridine-2-carbonitrile] here?
**A.** The IC50 was 18 µM.

**Q.** For `CCn1cc(-c2nc(N)ccc2C2CN(C(=O)/C=C/CN(C)C)Cc3sc(C#N)cc32)c(C(F)(F)F)n1` (centres unmarked) [Example 192, (E)-4-(6-Amino-2-(1-ethyl-3-(trifluoromethyl)-1 H-pyrazol-4-yl)pyridin-3-yl)-6-(4-(dimethylamino)but-2-enoyl)-4,5,6,7-tetrahydrothieno[2,3-c]pyridine-2-carbonitrile], which IC50 is on record?
**A.** Its IC50 is greater than 25 µM.

**Q.** How did the IC50 turn out when `CCn1cc(-c2cc(CO)ccc2C2CN(C(=O)/C=C/CN(C)C)Cc3sc(C#N)cc32)c(C(F)(F)F)n1` (centres unmarked) [Example 194, (E)-6-(4-(Dimethylamino)but-2-enoyl)-4-(2-(1-ethyl-3-(trifluoromethyl)-1 H-pyrazol-4-yl)-4-(hydroxymethyl)phenyl)-4,5,6,7-tetrahydrothieno[2,3-c]pyridine-2-carbonitrile] was run?
**A.** Its IC50 is greater than 25 µM.

**Q.** `CCn1cc(-c2cc(NC(=O)NC)ccc2C2CN(C(=O)/C=C/CN(C)C)Cc3sc(C#N)cc32)c(C(F)(F)F)n1` (centres unmarked) [Example 195, (E)-1-(4-(2-Cyano-6-(4-(dimethylamino)but-2-enoyl)-4,5,6,7-tetrahydrothieno[2,3-c]pyridin-4-yl)-3-(1-ethyl-3-(trifluoromethyl)-1 H-pyrazol-4-yl)phenyl)-3-methylurea] was tested. Which IC50 did it give?
**A.** Its IC50 is 11.3 µM.

**Q.** For `CCn1cc(-c2ccc(N)cc2C2CN(C(=O)/C=C/CN(C)C)Cc3sc(C#N)cc32)c(C(F)(F)F)n1` (centres unmarked) [Example 196, (E)-4-(5-Amino-2-(1-ethyl-3-(trifluoromethyl)-1 H-pyrazol-4-yl)phenyl)-6-(4-(dimethylamino)but-2-enoyl)-4,5,6,7-tetrahydrothieno[2,3-c]pyridine-2-carbonitrile], which IC50 is on record?
**A.** The IC50 was greater than 25 µM.

**Q.** With `CCn1cc(-c2cc(NC(C)=O)ccc2C2CN(C(=O)/C=C/CN(C)C)Cc3sc(C#N)cc32)c(C(F)(F)F)n1` (centres unmarked) [Example 197, (E)-N-(4-(2-Cyano-6-(4-(dimethylamino)but-2-enoyl)-4,5,6,7-tetrahydrothieno[2,3-c]pyridin-4-yl)-3-(1-ethyl-3-(trifluoromethyl)-1 H-pyrazol-4-yl)phenyl)acetamide] as the compound, how does the IC50 read?
**A.** Its IC50 is 15.2 µM.

**Q.** How did the IC50 turn out when `CCn1cc(-c2c(C3CN(C(=O)/C=C/CN(C)C)Cc4sc(C#N)cc43)cnn2C)c(C(F)(F)F)n1` (centres unmarked) [Example 198, (E)-6-(4-(Dimethylamino)but-2-enoyl)-4-(1′-ethyl-2-methyl-3′-(trifluoromethyl)-1′H,2H-[3,4′-bipyrazol]-4-yl)-4,5,6,7-tetrahydrothieno[2,3-c]pyridine-2-carbonitrile] was run?
**A.** The IC50 was greater than 25 µM.

**Q.** With `CCn1cc(-c2c(C3CN(C(=O)/C=C/CN(C)C)Cc4sc(C#N)cc43)ccnc2F)c(C(F)(F)F)n1` (centres unmarked) [Example 202, (E)-6-(4-(Dimethylamino)but-2-enoyl)-4-(3-(1-ethyl-3-(trifluoromethyl)-1 H-pyrazol-4-yl)-2-fluoropyridin-4-yl)-4,5,6,7-tetrahydrothieno[2,3-c]pyridine-2-carbonitrile] as the compound, how does the IC50 read?
**A.** Its IC50 is 24.9 µM.

**Q.** `CCn1cc(-c2cccc(O)c2C2CN(C(=O)/C=C/CN(C)C)Cc3sc(C#N)cc32)c(C(F)(F)F)n1` (centres unmarked) [Example 204, (E)-6-(4-(Dimethylamino)but-2-enoyl)-4-(2-(1-ethyl-3-(trifluoromethyl)-1 H-pyrazol-4-yl)-6-hydroxyphenyl)-4,5,6,7-tetrahydrothieno[2,3-c]pyridine-2-carbonitrile] was tested. Which IC50 did it give?
**A.** The IC50 was greater than 25 µM.

**Q.** How did the IC50 turn out when `CCn1cc(-c2ccc(O)cc2C2CN(C(=O)/C=C/CN(C)C)Cc3sc(C#N)cc32)c(C(F)(F)F)n1` (centres unmarked) [Example 205, (E)-6-(4-(Dimethylamino)but-2-enoyl)-4-(2-(1-ethyl-3-(trifluoromethyl)-1 H-pyrazol-4-yl)-5-hydroxyphenyl)-4,5,6,7-tetrahydrothieno[2,3-c]pyridine-2-carbonitrile] was run?
**A.** The IC50 was greater than 25 µM.

**Q.** `CCn1cc(-c2sccc2C2CN(C(=O)/C=C/CN(C)C)Cc3sc(C#N)cc32)c(C(F)(F)F)n1` (centres unmarked) [Example 207, (E)-6-(4-(Dimethylamino)but-2-enoyl)-4-(2-(1-ethyl-3-(trifluoromethyl)-1H pyrazol-4-yl)thiophen-3-yl)-4,5,6,7-tetrahydrothieno[2,3-c]pyridine-2-carbonitrile] was tested. Which IC50 did it give?
**A.** The IC50 was greater than 25 µM.

**Q.** `CCn1cc(-c2cc(C)ccc2C2CN(C(=O)/C=C/CN(C)C)Cc3sc(C#N)cc32)c(C(F)(F)F)n1` (centres unmarked) [Example 210, (E)-6-(4-(Dimethylamino)but-2-enoyl)-4-(2-(1-ethyl-3-(trifluoromethyl)-1 H pyrazol-4-yl)-4-methylphenyl)-4,5,6,7-tetrahydrothieno[2,3-c]pyridine-2-carbonitrile] was tested. Which IC50 did it give?
**A.** The IC50 was 19.7 µM.

**Q.** Which IC50 does the source give for `CCn1cc(-c2cc(F)ccc2C2CN(C(=O)/C=C/CN(C)C)Cc3sc(C#N)cc32)c(C(F)(F)F)n1` (centres unmarked) [Example 211, (E)-6-(4-(Dimethylamino)but-2-enoyl)-4-(2-(1-ethyl-3-(trifluoromethyl)-1 H-pyrazol-4 yl)-4-fluorophenyl)-4,5,6,7-tetrahydrothieno[2,3-c]pyridine-2-carbonitrile] here?
**A.** The IC50 was 20.2 µM.

**Q.** For `CCn1cc(-c2cc(Cl)ccc2C2CN(C(=O)/C=C/CN(C)C)Cc3sc(C#N)cc32)c(C(F)(F)F)n1` (centres unmarked) [Example 212, (E)-4-(4-Chloro-2-(1-ethyl-3-(trifluoromethyl)-1 H-pyrazol-4-yl)phenyl)-6-(4-(dimethylamino)but-2-enoyl)-4,5,6,7-tetrahydrothieno[2,3-c]pyridine-2-carbonitrile], which IC50 is on record?
**A.** The IC50 was 11.7 µM.
